From US20120245229A1, “METHOD FOR TREATING NEUROPATHIC PAIN” (priority 2009, published 2012) come the findings set out here.

Molecules are shown by their SMILES.

Assay [1] has as its system glutamate NMDA receptors (NMDARs). The experiment in a line: NMDA-induced currents in dorsal horn (lamina II) neurons of spinal cord slices. To be noted: NMDA 50 μM; TNF-α 10 ng/ml; PD98059 1 μM, U0126 1 μM, capsazepine 10 μM. The class given is cell-based, mice. The protocol:
Spinal cord slice preparation. As previously reported^39, a portion of the lumbar spinal cord (L4-L5) was removed from young mice (3-4 week old) under urethane anesthesia (1.5-2.0 g/kg, i.p.) and transverse spinal cord slices were cut (600 μm) on a vibrating microslicer. The slices were perfused with Kreb's solution (8 ml/min) for >2 h prior to experiments. Some slices were stimulated with TNF-α (10 ng/ml, 5 min), the slices were fixed with 4% paraformaldehyde for 1 h, and processed pERK immunohistochemistry using thin sections (15 μm)^13.
Patch clamp recordings in spinal slices. Whole cell patch-clamp recordings were performed in lamina II neurons in voltage clamp mode^39. After establishing the whole-cell configuration, neurons were held at the holding potentials of −70 mV for recording spontaneous excitatory postsynaptic current (sEPSC). NMDA-induced currents were recorded by bath application of NMDA (50 μM, Sigma) at the holding potential of −50 mV. Membrane currents were amplified with an Axopatch 200A amplifier (Axon Instruments) in voltage-clamp mode. pCLAMP 6 was used and Mini Analysis (Synaptosoft Inc.) software to store and analyze the data. Those cells showing >5% changes from the baseline levels were reagrded as responding ones^24.
Resolvins were also used for intraplantar injection. RvD1 or RvE1 was injected into the plantar surface of a hindapaw [20 ng, 20 μl , in 1% ethanol (Supplementary FIG. 5a, 5b) or in 10% ethanol (FIG. 2e, Supplementary FIG. 1d)]. DRG cultures were incubated with RvE1 (10 ng/ml, 0.1% ethanol in culture medium) and perfused spinal cord slices with RvE1 (1 ng/ml, in 0.01% ethanol and Kreb's solution).
Perfusion of spinal cord slices: Spinal cord slices were incubated with chemerin (100 ng/ml, in Kreb's solution), TNF-α (10 ng/ml, in Kreb's solution), capsaicin (100 nM, in 0.01% DMSO and Kreb's solution), TRPV1 antagonist capsazepine (Sigma, 10 μM, in 0.01% DMSO and Kreb's solution), pertussix toxin (0.5 μg/ml, in Kreb's solution), and MEK inhibitor PD98059 and U0126 (CalBiochem, 1 μM, in 0.01% DMSO and Kreb's solution). For pertussix toxin treatment, spinal cord slices were incubated with the toxin for 3 h before stimulation.

The test system of assay [2] is formalin-induced inflammatory pain. As to the kind of experiment: Formalin-induced spontaneous inflammatory pain (licking/flinching duration). The class given is in vivo, mice. The protocol:
Animals and pain models. Adult CD1 mice (male, 25-32 g) were used for most experiments. Knockout mice were used lacking TNFR1/II (Tnfrsf1a/1b^−/−) and TRPV1 (Trpv1^−/−) and C57BL/6 wild-type control mice, all from Jackson, for some experiments. All animal procedures performed in this study were approved by the Harvard Medical Area Standing Committee on Animals. 20 μl of diluted formalin (5%), carrageenan (CRG, 1%), or complete Freund's adjuvant (CFA) were injected into the plantar surface of a hindpaw to produce acute, persistent, or chronic inflammatory pain, respectively. Postoperative pain was also produced through hindpaw incision^36 and neuropathic pain by ligation of the spinal nerve^37.
Reagents and administration. RvE1 and RvD1 were suspended in 1% or 10% ethanol as vehicle for investigating acute (<1 h) and persistent (1-6 h) effects of resolvins on inflammatory pain. The reagents (10 μl) were delivered to the cerebral spinal fluid via intrathecal injection made by a spinal cord puncture between the L5 and L6 level with a 30G needle^38.
Behavioral analysis. Mice were habituated in the testing environment for two days and performed behavioral testing in a blinded manner. Formalin-evoked spontaneous inflammatory pain was assessed by measuring duration (seconds) animals spent on licking/flinching the affected paws every 5 min for 45 min. Capsaicin-induced spontaneous pain was aslo assessed for 10 min. For testing mechanical sensitivity, mice were put in boxes on an elevated metal mesh floor and stimulated hindpaw with a series of von Frey hairs with logarithmically incrementing stiffness (0.02-2.56 grams, Stoelting), presented perpendicular to the plantar surface. It was determined the 50% paw withdrawal threshold using Dixon's up-down method^40. For testing heat sensitivity, mice were placed in plastic boxes and tested heat sensitivity using Hargreaves radiant heat apparatus (IITC Life Science Inc.). The basal paw withdrawal latency was adjusted to 9-12 seconds and set a cut-off of 20 seconds to prevent tissue damage. The percent maximal possible antinociceptive effect (% M.P.E) was calculated using the equation % M.P.E.=[(PL−BL2)/(BL1−BL2)]×100. BL1, baseline latency before inflammation; BL2, baseline latency after inflammation but before drug injection; PL, latency post drug injection.
Intrathecal injection. To avoid systemic effects of drugs and target spinal mechanisms, drugs were delivered into cerebral spinal fluid (CSF) space around lumbosacral spinal cord via intrathecal (i.t.) administration. Spinal cord puncture was made with a 30G needle between the L5 and L6 level to deliver the reagents (10 μl) to the cerebral spinal fluid (Hylden and Wilcox, 1980)^5. […] In addition to spinal cord cells, intrathecal drug administration also affects DRG cells^6,7.
Intrathecal injection: DHA and EPA (Cayman Chemical, 10 μg, prepared in 1% ethanol), COX-2 inhibitor NS-398 (Sigma, 0.1, 1, and 10 μg, prepared in 1% ethanol in FIG. 1a-c or in 10% ethanol in FIG. 2c), morphine (Sigma, 10 to 500 ng, prepared in 1% ethanol in FIG. 1a-c), naloxone (Sigma, 2 μg, prepared in 1% ethanol), pertussis toxin (Tocris Bioscience, 0.2 μg, prepared in saline), chemerin (R & D Systems, 0.45 to 100 ng, prepared in 1% ethanol), TNF-α (R & D Systems, 20 ng, prepared in saline), and capsaicin (Sigma, 0.5 μg in 10 μl, prepared in 1% DMSO) were delivered. To examine whether pretreatment of RvE1 attenuated TNF-α-induced persistent hyperalgesia at 1, 3, and 24 h, RvE1 and TNF-α were mixed and injected at the same time (FIG. 3c). To examine whether pretreatment of RvE1 attenuates capsaicin-induced acute spontaneous pain, RvE1 and capsaicin were mixed and injected at the same time (FIG. 3f).

A further assay concerns CRG-induced edema. The experiment in a line: Carrageenan paw edema (paw volume, plethysmometer). The class given is in vivo, mice. The conditions noted are these: intraplantar pretreatment; 4 h after CRG injection. Here is the method:
Measurement of paw volume. Paw swelling (edema) after carrageenan injection was determined by water displacement plethysmometer (Ugo Basile, Italy). The Plethysmometer is a microcontrolled volume meter, specially designed for accurate measurement of the rat/mouse paw swelling. It consists of a water filled Perspex cell into which the paw is dipped. A transducer of original design records small differences in water level, caused by volume displacement.
On the technique in general: The carrageenan paw model is a standard test of acute inflammation.

`CC[C@@H](O)/C=C/C=C\C[C@@H](O)/C=C/C=C/C=C\[C@@H](O)CCCC(=O)O` [RvE1, 5S,12R,18R-trihydroxyeicosapentaenoic acid]: the “TNF-α-induced potentiation of NMDA currents (NMDAR activation)” value in assay [1] is “blocked this potentiation”. The “effective dose range compared with morphine and NS-398, formalin 2nd phase” value in assay [2] (intrathecal, dose response curve FIG. 1c) is recorded as “much lower than that of either morphine or the COX-2 inhibitor NS-398”. For the same compound, in assay [2] (preemptive intrathecal injection, RvE1 0.3 and 1.0 ng), the “formalin-induced pain behavior, 1st phase” value is “not the 1st phase”. For the same compound, the “formalin-induced pain behavior, 2nd phase” value in assay [2] (preemptive intrathecal injection, RvE1 0.3 and 1.0 ng, morphine 10 to 500 ng, NS-398 0.1, 1, and 10 μg, chemerin 0.45 to 100 ng) is “reduced”. Moreover, in the assay on CRG-induced edema, the “CRG-induced edema (paw volume)” value was “reducing”.
